US20250186627A1, “RADIOLABELED COMPOUNDS TARGETING THE PROSTATE-SPECIFIC MEMBRANE ANTIGEN” (PROVINCIAL HEALTH SERVICES AUTHORITY, priority 2022, published 2025)
*1 amine or outer side, *2 acyl side, *3 side chain or, on linkers, in order; H or OH if unused. Where a SMILES comes first, the peptide text is derived from it. [ ]: non-standard residue; d: D form. The star is where a group is joined. X4 = O=C(N[C@@H](CCCCN*)C(=O)O)N[C@@H](C[C@@H](F)C(=O)O)C(=O)O; Butanoyl(4-(4-NO2Ph)) = O=C(CCCc1ccc([N+](=O)[O-])cc1)*; DOTA = O=C(O)CN1CCN(CC(=O)O)CCN(CC(=O)*)CCN(CC(=O)O)CC1; EuK = O=C(O)CC[C@H](NC(=O)N[C@@H](CCCCN*)C(=O)O)C(=O)O; Ala(9-anthryl) = N[C@@H](Cc1c2ccccc2cc2ccccc12)C(=O)O; X1 = O=C(C1CCC(CN[*:1])CC1)[*:2]

Target: T1, PSMA (Homo sapiens, UniProt Q04609)
T1 construct: endogenous in cells; host or cells: LNCaP cells
Experiment: In vitro PSMA competitive binding assay, LNCaP cells, [18F]DCFPyL radioligand
Details: [18F]DCFPyL 0.1 nM, read-out: PSMA binding affinity (Ki)
Description: Inhibition constants (Ki) to PSMA were measured by in vitro competition binding assays using [^18F]DCFPyL as the radioligand. LNCaP cells which were plated onto a 24-well poly-D-lysine coated plate for 48 h (400,000/well). Growth medium was removed and replaced with HEPES buffered saline (50 mM HEPES, pH 7.5, 0.9% sodium chloride). After 1 h, [^18F]DCFPyL (0.1 nM) was added to each well (in triplicate) containing varied concentrations ([…]) of tested compounds The assay mixtures were incubated for 1 h at 37° C. with gentle agitation followed by two washes with cold HEPES buffered saline. A trypsin solution (0.25%, 400 μL) was then added to each well to harvest the cells. Radioactivity was measured by gamma counting and Ki values calculated using the ‘one site—fit Ki’ built-in model in Prism 8 (GraphPad).

T1 sequence (Q04609 whole entry): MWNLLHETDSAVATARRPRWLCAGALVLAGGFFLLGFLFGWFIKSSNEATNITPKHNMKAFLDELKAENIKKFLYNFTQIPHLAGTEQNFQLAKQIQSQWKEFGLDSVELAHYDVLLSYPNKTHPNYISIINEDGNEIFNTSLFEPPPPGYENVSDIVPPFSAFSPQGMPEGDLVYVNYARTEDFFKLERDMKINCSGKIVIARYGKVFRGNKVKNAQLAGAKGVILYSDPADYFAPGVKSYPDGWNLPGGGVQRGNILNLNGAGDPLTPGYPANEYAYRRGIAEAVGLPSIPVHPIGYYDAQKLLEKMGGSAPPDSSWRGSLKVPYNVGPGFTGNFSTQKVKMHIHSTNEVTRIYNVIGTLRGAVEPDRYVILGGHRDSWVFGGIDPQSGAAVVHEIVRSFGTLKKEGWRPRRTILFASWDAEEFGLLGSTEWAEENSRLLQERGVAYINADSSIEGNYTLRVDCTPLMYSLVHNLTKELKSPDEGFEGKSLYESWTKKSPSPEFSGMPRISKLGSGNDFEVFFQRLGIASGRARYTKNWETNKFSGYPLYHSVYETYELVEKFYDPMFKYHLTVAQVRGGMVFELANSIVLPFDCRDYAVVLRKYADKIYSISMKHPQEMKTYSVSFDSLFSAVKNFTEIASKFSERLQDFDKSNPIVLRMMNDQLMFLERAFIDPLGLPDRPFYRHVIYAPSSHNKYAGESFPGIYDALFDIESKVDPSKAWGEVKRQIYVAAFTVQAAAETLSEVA

Ki [nM] | SMILES
11.2 | O=C(O)CCC[C@H](NC(=O)N[C@@H](CCCCNC(=O)[C@H](Cc1c2ccccc2cc2ccccc12)NC(=O)C1CCC(NC(=O)CNC(=O)C[C@H](CCCCNC(=O)CN2CCN(CC(=O)O)CCN(CC(=O)O)CCN(CC(=O)O)CC2)NC(=O)CNC(=O)CCCc2ccc([N+](=O)[O-])cc2)CC1)C(=O)O)C(=O)O (stereo partly drawn) [CCZ02022]
1.54 | O=C(O)CC[C@H](NC(=O)N[C@@H](CCCCNC(=O)[C@H](Cc1c2ccccc2cc2ccccc12)NC(=O)C1CCC(CNC(=O)CNC(=O)[C@H](CCCCNC(=O)CN2CCN(CC(=O)O)CCN(CC(=O)O)CCN(CC(=O)O)CC2)NC(=O)CNC(=O)CCCc2ccc([N+](=O)[O-])cc2)CC1)C(=O)O)C(=O)O (stereo partly drawn) [CCZ02024] ({Butanoyl(4-(4-NO2Ph))}-GK(DOTA)G[X1][Ala(9-anthryl)]-EuK)
0.59 | O=C(O)CN1CCN(CC(=O)O)CCN(CC(=O)NCCCC[C@H](NC(=O)CNC(=O)CCCc2ccc([N+](=O)[O-])cc2)C(=O)NCC(=O)NCC2CCC(C(=O)N[C@@H](Cc3c4ccccc4cc4ccccc34)C(=O)NCCCC[C@H](NC(=O)N[C@@H](C[C@@H](F)C(=O)O)C(=O)O)C(=O)O)CC2)CCN(CC(=O)O)CC1 (stereo partly drawn) [CCZ02025] ({Butanoyl(4-(4-NO2Ph))}-GK(DOTA)G[X1][Ala(9-anthryl)]-X4)
